Results from BindingDB's records for doi:10.1021/jm00168a011 (Merrell Dow Research Institute, 1990).
Structures can show the parent of a compound that is named as a salt.

These compounds were tested against T1, 5-hydroxytryptamine receptor 3A/3B (Mus musculus, UniProt P23979+Q9JHJ5) (assay: Binding affinity towards 5-hydroxytryptamine 3 receptor was determined by using [3H]-ICS 205-930 as radioligand in mouse N1E 115 cells).
T1 sequence (P23979 whole entry): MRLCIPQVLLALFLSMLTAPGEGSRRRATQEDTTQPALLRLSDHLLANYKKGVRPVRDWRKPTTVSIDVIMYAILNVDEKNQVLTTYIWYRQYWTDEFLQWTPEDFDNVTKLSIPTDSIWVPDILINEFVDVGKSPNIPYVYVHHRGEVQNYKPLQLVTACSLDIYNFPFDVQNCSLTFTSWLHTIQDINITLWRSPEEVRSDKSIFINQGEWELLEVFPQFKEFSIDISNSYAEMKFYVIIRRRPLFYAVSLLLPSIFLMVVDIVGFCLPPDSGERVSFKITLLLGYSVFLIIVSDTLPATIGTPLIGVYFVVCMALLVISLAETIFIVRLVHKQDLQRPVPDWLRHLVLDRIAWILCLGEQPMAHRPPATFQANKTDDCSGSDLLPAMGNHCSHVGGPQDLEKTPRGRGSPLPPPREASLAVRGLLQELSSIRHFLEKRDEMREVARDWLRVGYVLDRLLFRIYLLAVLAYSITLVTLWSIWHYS
T1 sequence (Q9JHJ5 whole entry): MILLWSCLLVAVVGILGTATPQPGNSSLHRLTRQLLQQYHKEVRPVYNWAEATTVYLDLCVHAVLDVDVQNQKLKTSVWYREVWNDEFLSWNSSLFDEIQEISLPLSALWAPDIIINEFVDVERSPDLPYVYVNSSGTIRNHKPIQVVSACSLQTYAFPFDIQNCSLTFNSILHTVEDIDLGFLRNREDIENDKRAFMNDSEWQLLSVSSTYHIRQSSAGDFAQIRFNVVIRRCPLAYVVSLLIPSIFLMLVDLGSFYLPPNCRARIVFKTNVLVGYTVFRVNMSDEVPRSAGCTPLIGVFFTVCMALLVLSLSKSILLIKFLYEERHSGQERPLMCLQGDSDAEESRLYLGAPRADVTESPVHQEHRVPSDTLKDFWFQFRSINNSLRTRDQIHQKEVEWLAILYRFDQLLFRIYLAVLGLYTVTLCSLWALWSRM

Row | SMILES | Kd [nM]
1 | CN1[C@@H]2CC[C@H]1C[C@@H](OC(=O)c1cc(Cl)cc(Cl)c1)C2 [TROPANYL 3,5-DICHLOROBENZOATE] | 6.2
2 | O=C(OC1CC2CCC(C1)N2)c1c[nH]c2ccccc12 (stereo unspecified) [NORTROPISETRON] | 0.724
3 | Cc1nccn1CC1CCc2c(c3ccccc3n2C)C1=O (stereo unspecified) [NSC_68647] | 13
4 | CN1[C@@H]2CC[C@H]1C[C@@H](OC(=O)c1c[nH]c3ccccc13)C2 [(3-ENDO)-8-METHYL-8-AZABICYCLO[3.2.1]OCT-3-YL 1H-INDOLE-3-CARBOXYLATE] | 0.813
5 | c1ccc2nc(N3CCNCC3)ccc2c1 [2-Piperazin-1-yl-quinoline (Quipazine)] | 2
6 | CCN(CC)CCNC(=O)c1cc(Cl)c(N)cc1OC [4-amino-5-chloro-N-[2-(diethylamino)ethyl]-2-methoxy-benzamide;hydrochloride] | 224
